One assay deals with HEK293. Description: Selectivity ratio of Ki for human 5-HT1A receptor to Ki for human 5-HT7B receptor expressed in HEK293 cells. The format is cell-based.
Assay [1] has as its target T1, 5-hydroxytryptamine receptor 1A (Homo sapiens, UniProt P08908).
T1 sequence (P08908 whole entry): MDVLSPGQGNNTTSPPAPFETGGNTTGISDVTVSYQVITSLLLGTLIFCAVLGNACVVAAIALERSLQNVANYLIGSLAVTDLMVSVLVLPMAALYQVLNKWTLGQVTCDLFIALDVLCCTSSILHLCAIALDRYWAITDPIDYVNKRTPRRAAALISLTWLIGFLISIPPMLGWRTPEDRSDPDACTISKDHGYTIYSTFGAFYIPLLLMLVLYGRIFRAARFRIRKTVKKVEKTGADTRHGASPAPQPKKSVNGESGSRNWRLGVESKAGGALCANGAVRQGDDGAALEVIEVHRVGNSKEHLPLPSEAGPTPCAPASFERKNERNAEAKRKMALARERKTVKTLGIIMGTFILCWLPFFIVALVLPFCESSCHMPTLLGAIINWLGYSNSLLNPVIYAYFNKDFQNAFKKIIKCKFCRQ
Put plainly: Displacement of [3H]-8-OH-DPAT from human serotonin 5-HT1A receptor expressed in HEK293 cells after 1 hr by microplate reader based assay. The format is cell-based. A general note: Displacement assays read how much labelled ligand stays bound in the presence of the test substance.

Assay [2] addresses T2, 5-hydroxytryptamine receptor 7 (Homo sapiens, UniProt P34969). Put plainly: Antagonist activity at human serotonin 5-HT7B receptor expressed in CHO cells assessed as inhibition of serotonin-induced cAMP production at 1 uM after 30 mins by HTRF assay relative to control. It counts as functional, cell-based.
For assay [3], the target named is T3, Adrenergic receptor alpha-1 (Rattus norvegicus, UniProt P15823+P23944+P43140).
T3 sequence (P15823 whole entry): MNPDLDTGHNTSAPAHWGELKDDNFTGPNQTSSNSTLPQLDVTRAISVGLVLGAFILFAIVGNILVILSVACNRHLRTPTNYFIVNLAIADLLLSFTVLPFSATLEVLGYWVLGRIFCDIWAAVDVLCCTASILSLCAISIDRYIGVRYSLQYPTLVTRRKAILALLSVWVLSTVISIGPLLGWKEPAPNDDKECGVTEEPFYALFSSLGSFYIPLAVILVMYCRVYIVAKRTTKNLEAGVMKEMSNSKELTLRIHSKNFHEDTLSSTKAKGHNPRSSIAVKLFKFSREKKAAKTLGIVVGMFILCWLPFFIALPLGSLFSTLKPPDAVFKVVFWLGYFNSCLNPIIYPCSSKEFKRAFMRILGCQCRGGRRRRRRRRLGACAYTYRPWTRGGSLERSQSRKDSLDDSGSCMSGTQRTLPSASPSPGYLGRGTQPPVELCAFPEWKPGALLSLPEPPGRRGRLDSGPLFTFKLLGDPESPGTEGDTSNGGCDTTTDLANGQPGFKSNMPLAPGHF
T3 sequence (P23944 whole entry): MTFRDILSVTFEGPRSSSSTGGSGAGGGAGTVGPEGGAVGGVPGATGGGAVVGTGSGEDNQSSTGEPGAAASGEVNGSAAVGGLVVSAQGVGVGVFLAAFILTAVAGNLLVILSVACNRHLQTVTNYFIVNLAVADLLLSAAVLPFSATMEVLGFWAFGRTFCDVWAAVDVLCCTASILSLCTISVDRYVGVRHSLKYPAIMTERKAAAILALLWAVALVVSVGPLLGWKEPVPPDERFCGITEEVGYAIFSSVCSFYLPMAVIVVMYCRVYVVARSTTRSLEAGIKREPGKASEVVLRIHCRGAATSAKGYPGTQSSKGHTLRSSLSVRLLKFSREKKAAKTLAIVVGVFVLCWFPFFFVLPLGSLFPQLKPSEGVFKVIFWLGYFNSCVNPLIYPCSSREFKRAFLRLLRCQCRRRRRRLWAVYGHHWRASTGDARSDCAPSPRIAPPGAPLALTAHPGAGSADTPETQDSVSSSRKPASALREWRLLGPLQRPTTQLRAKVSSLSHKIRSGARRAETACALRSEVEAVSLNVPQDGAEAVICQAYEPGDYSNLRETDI
T3 sequence (P43140 whole entry): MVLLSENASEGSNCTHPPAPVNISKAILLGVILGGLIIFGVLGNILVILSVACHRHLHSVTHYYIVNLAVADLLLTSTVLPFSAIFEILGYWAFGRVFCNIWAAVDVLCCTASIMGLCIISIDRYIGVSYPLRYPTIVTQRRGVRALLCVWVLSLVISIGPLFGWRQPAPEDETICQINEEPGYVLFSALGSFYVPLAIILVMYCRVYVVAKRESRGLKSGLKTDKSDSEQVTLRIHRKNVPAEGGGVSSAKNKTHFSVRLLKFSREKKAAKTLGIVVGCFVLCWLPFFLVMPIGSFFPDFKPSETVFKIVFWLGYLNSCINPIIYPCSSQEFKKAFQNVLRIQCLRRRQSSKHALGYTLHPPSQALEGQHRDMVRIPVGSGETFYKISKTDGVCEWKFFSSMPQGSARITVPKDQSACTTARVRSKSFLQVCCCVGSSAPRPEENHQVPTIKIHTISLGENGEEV
Put plainly: Displacement of [3H]-Prazosin from alpha-1 adrenergic receptor in rat cerebral cortex after 1 hr by microplate reader based assay. It counts as tissue-based.

The target in a further assay is D(2) dopamine receptor (Homo sapiens, UniProt P14416). Put plainly: Displacement of [3H]-Raclopride from human dopamine D2L receptor expressed in HEK293 cells after 1 hr by microplate reader based assay. It counts as cell-based.
Sequence of D(2) dopamine receptor (P14416 whole entry): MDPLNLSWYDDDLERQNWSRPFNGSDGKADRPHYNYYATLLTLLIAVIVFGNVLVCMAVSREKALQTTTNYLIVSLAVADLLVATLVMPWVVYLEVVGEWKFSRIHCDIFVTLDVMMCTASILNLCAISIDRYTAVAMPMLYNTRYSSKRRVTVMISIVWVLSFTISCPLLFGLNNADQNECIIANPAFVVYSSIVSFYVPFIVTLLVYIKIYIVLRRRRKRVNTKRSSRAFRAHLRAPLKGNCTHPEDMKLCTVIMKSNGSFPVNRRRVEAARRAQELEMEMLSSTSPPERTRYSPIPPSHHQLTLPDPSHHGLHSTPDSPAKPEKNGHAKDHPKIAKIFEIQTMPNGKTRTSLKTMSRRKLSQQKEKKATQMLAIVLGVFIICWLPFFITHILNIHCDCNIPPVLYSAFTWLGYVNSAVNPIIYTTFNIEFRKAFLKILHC
Assay [4] concerns the target T2, 5-hydroxytryptamine receptor 7. Description: Displacement of [3H]-5-carboxyamidotryptamine from human serotonin 5-HT7B receptor expressed in HEK293 cells after 1 hr by microplate reader based assay. It counts as cell-based.
The next assay deals with Mus musculus. Description: Antidepressant-like activity in albino Swiss mouse assessed as reduction in immobility time at 10 mg/kg, ip dosed 60 mins before test by forced swim test. The format is functional.
For assay [5], the target named is 5-hydroxytryptamine receptor 6 (Homo sapiens, UniProt P50406). Description: Displacement of [3H]-LSD from human serotonin 5-HT6 receptor expressed in HEK293 cells after 1 hr by microplate reader based assay. The format is cell-based.
Sequence of 5-hydroxytryptamine receptor 6 (P50406 whole entry): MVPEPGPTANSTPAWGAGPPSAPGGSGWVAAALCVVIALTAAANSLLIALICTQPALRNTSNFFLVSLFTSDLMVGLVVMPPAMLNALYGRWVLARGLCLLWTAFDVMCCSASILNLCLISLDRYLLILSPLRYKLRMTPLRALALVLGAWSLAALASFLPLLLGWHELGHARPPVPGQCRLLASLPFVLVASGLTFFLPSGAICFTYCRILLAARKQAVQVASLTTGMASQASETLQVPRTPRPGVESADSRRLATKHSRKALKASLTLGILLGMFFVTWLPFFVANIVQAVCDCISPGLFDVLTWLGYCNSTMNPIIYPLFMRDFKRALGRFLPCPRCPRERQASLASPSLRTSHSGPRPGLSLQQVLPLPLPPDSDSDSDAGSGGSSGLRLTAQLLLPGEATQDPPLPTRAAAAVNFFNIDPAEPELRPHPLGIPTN
Another assay relates to Rattus norvegicus. Put plainly: Pro-cognitive effect in Sprague-Dawley rat assessed as reduction in PCP-induced memory deficits administered ip 1 hr 15 mins before familiarization phase by novel object recognition test. It counts as functional, organism-based.

The source made the active and inactive calls. No cut-off for these calls is given here.

T2 sequence (P34969 whole entry): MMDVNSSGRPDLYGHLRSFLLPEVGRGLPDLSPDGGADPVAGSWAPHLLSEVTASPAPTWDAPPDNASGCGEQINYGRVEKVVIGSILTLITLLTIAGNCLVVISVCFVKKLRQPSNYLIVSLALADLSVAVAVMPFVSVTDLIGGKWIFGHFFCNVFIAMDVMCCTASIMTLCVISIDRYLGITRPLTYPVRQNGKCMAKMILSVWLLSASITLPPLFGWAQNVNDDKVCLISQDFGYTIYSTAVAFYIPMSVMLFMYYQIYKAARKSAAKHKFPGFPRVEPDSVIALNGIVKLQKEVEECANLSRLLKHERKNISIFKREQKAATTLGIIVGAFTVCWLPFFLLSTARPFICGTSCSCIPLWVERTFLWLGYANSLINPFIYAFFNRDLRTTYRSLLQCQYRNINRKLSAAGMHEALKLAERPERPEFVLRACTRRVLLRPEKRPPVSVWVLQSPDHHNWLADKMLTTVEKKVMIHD

By Ki is commonly meant a dissociation constant, usually derived from enzyme kinetics or from competition with a known ligand. A high value points to lower affinity. `O=S(=O)(NC1CCN(CCOc2ccccc2-c2ccccc2)CC1)c1ccc(Cl)s1`: in the assay with HEK293, the Ratio Ki stood at 16. This compound also had an inhibitory constant (Ki) in assay [1] of 0.19 µM.
Broadly, the inhibition is the relative decrease from the control value, in per cent. As to `CC(C)c1ccccc1OCCN1CCC(NS(=O)(=O)c2cc(F)ccc2F)CC1`, in assay [2], the inhibition was found to be 84%. Further, the Ki in [3] stood at 0.589 µM; at D(2) dopamine receptor it was 0.147 µM; in assay [4] it was 0.008 µM; in assay [1], 0.208 µM; in [5], 0.324 µM. Moreover, the Ratio Ki in the assay with HEK293 amounted to 26. Moreover, the result with Mus musculus was Active.
Take `O=S(=O)(NC1CCN(CCOc2ccccc2-c2ccccc2)CC1)c1cncc2ccccc12`: the Ratio Ki with HEK293 is 8. The Ki is 0.009 µM in assay [4] and 0.074 µM in assay [1].
With `CC(C)c1ccccc1OCCN1CCC(NS(=O)(=O)c2cccc3ncccc23)CC1`, the inhibition in assay [2] stood at 96%. For the same compound, the inhibition constant Ki in [3] was found to be 0.712 µM; on D(2) dopamine receptor, 0.104 µM; in [4], 0.007 µM; in assay [1], 0.232 µM; in assay [5], 0.233 µM. The Activity result with Rattus norvegicus is “Dose-dependent effect”. In addition, the Ratio Ki with HEK293 is 33.
`CC(C)c1ccccc1OCCN1CCC(NS(=O)(=O)c2ccc(Cl)s2)CC1`: the Ratio Ki with HEK293 stood at 19. Moreover, the Ki was 0.024 µM in assay [4] and 0.455 µM in assay [1].
Taken in the same sequence, the figures for `CC(C)CS(=O)(=O)NC1CCN(CCOc2ccccc2C(C)C)CC1` were 1, 0.2 µM and 0.278 µM.
As for `CC(C)c1ccccc1OCCN1CCC(NS(=O)(=O)c2cnn(C)c2)CC1`, the inhibition in assay [2] is 85%. For the same compound, the Ki in assay [3] is 0.389 µM; on D(2) dopamine receptor, 0.14 µM; in assay [4], 0.019 µM; in [1] it was 0.616 µM; in [5], 0.641 µM. Also, the Ratio Ki in the assay with HEK293 was 32.
Turning to `CC(C)c1ccccc1OCCN1CCC(NS(=O)(=O)c2cccc(Cl)c2)CC1`, the Ratio Ki with HEK293 stood at 22. The inhibitory constant (Ki) in [4] was 0.008 µM; in assay [1], 0.178 µM.
Taken in the same sequence, the figures for `CC(C)CS(=O)(=O)NC1CCN(CCOc2ccccc2-c2ccccc2)CC1` were 2, 0.044 µM and 0.074 µM.
Turning to `CC(C)c1ccccc1OCCN1CCC(NS(=O)(=O)c2cncc3ccccc23)CC1`, in the assay with HEK293, the Ratio Ki was 5. Besides, the inhibition constant Ki in [4] came to 0.021 µM; in [1] it was 0.103 µM.
Taken in the same sequence, the figures for `O=S(=O)(NC1CCN(CCOc2ccccc2-c2ccccc2)CC1)c1cccc(F)c1` were 10, 0.036 µM and 0.368 µM.
`O=S(=O)(NC1CCN(CCOc2ccccc2-c2ccccc2)CC1)c1ccc(F)cc1`: in the assay with HEK293, the Ratio Ki came out at 23. Further, the Ki was 0.007 µM in assay [4] and 0.159 µM in assay [1].
Taken in the same sequence, the figures for `CC(C)c1ccccc1OCCN1CCC(NS(=O)(=O)c2ccc(F)c(F)c2)CC1` were 14, 0.028 µM and 0.373 µM.
For the compound `O=S(=O)(NC1CCN(CCOc2ccccc2-c2ccccc2)CC1)c1ccccc1`, the Ratio Ki in the assay on HEK293 was found to be 6. Further, the inhibitory constant (Ki) in assay [4] is 0.049 µM; in assay [1] it was 0.279 µM.
Taken in the same sequence, the figures for `O=S(=O)(NC1CCN(CCOc2ccccc2-c2ccccc2)CC1)c1cccc2ncccc12` were 13, 0.008 µM and 0.102 µM.
As for `O=S(=O)(NC1CCN(CCOc2ccccc2-c2ccccc2)CC1)c1ccc(F)c(F)c1`, in [3], the Ki was found to be 2.541 µM. Further, in the assay with HEK293, the Ratio Ki stood at 45.
On to `O=S(=O)(NC1CCN(CCOc2ccccc2-c2ccccc2)CC1)c1cccc(Cl)c1`, for which, in [2], the inhibition came out at 95%. Moreover, the Ki in assay [3] amounted to 2.019 µM; at D(2) dopamine receptor, 0.085 µM; in assay [4], 0.006 µM; in assay [1], 0.234 µM; in assay [5] it was 0.276 µM. Besides, the Activity entry in the assay on Rattus norvegicus was “Dose-dependent effect”. The Ratio Ki in the assay on HEK293 came out at 33.
With `CC(C)c1ccccc1OCCN1CCC(NS(=O)(=O)c2ccccc2)CC1`, in the assay with HEK293, the Ratio Ki came out at 6. Besides, the inhibitory constant (Ki) in assay [4] was 0.042 µM; in assay [1], 0.249 µM.
For `O=S(=O)(NC1CCN(CCOc2ccccc2-c2ccccc2)CC1)c1cc(F)ccc1F`, the Ratio Ki in the assay on HEK293 was determined as 26. The Ki in assay [4] was 0.007 µM; in [1], 0.183 µM.
Taken in the same sequence, the figures for `Cn1cc(S(=O)(=O)NC2CCN(CCOc3ccccc3-c3ccccc3)CC2)cn1` were 17, 0.019 µM and 0.321 µM.

For the origin of these results see ChEMBL document CHEMBL3739404, “Arylsulfonamide derivatives of (aryloxy)ethylpiperidines as selective 5-HT7receptor antagonists and their psychotropic properties” (Medchemcomm, 2015).
